Measured values taken from paper PMC12476087, “Loading of Dicarboxylatoplatinum(II)‐NHC Complexes in Bacterial Ghosts as an Advanced Development in Cancer Therapy” (Archiv Der Pharmazie, 2025).

Legend:
Assay type in all cases: cell-based
[1] = test system: surface calreticulin on A2780cis cells; experiment: Immunofluorescent surface calreticulin staining, A2780cis; conditions: w/o BGs, 25 µM, 24 h
Protocol: (§1) Oxaliplatin, a known metal‐based ICD inducer, was included for comparison.
(§2) A2780wt or A2780cis cells were seeded at a density of 1.2 × 10^5 on cover slips and allowed to adhere for 24 h. […] Subsequently, the cells were washed again three times with PBS and they were incubated after adding the secondary antibody (Alexa‐Fluor‐conjugated anti‐rabbit, 1:200), for 45 min at rt. Subsequently, the cells were washed again three times with PBS and they were mounted on slides with mounting medium. After letting them dry overnight, visualization was performed by spinning disk confocal microscopy. […] Acquired images were background subtracted, individual cells were manually segmented, and fluorescence intensity for the calreticulin staining was quantified with a FIJI software. Two repetitions of the experiment were performed, where at least 20 cells per condition were analyzed and the mean intensity of each sample was calculated, respectively.

A2780cis cells [2] = experiment: MTT assay, A2780cis cells; conditions: for Resistance factor RF = IC50(A2780cis)/IC50(A2780wt): 72 h; for IC50: 72 h exposure
Protocol: (§3) Carboplatin, a second‐generation platinum drug commonly used as part of standard first‐line chemotherapy for ovarian carcinoma, was examined as a reference compound due to its clinical relevance. Additionally, the nonmalignant bone marrow stromal cell line HS‐5 was included as a control to assess specificity of the complexes toward cancer cells.
(§4) Unloaded BGs (4 × 10^8 EcN or 2 × 10^8 Ec NM522, which is equivalent to the highest tested BG concentration) were tested as controls.
(§5) The exponentially growing cells were seeded at a density of 8 × 10^3 cells/well (A2780wt/cis) or 1 × 10^4 cells/well (HS‐5), respectively, into clear flat‐bottom 96‐well plates in triplicates. […] After another 72 h of incubation, the cellular metabolic activity was measured as an indicator of cell viability employing an MTT assay. Hereby, 20 µL of a 5 mg/mL MTT solution was added to each well, respectively. After 3 h of incubation, the medium was discarded, and the formazan crystals formed were dissolved in DMSO for 15 min with gentle shaking. […] The OD at 620 nm was subtracted from the OD at 595 nm. The OD of the medium was subtracted to exclude the unspecific staining caused by FCS‐containing medium. Cells treated with vehicle control (0.1% DMF) only were set at 100% metabolic activity. The IC50 values were calculated with Prism 8.0 (GraphPad Software Inc., Boston, MA, USA) using nonlinear regression. Significance was evaluated via a one sample t‐test performed with Prism 8.0.

A2780wt cells [3] = experiment: MTT assay, A2780wt cells; conditions: for IC50: MTT assay, 72 h exposure
Protocol: as §3, §4, §5

[4] = test system: surface calreticulin on A2780wt cells; experiment: Immunofluorescent surface calreticulin staining, A2780wt; conditions: w/o BGs, 25 µM, 24 h
Protocol: as §1, §2

A2780wt cells [5] = experiment: ATP luminescence assay, A2780wt; conditions: w/o BGs, 25 µM, 24 h
Text: (§6) As a second potential mode of cell death, ICD has been investigated. Thus, two hallmarks of ICD, namely release of adenosine triphosphate (ATP) and calreticulin translocation to the plasma membrane have been analyzed in detail. Given that some platinum complexes, including the clinically used drug oxaliplatin [27], as well as BGs, are known inducers of ICD, we investigated the potential of BGs loaded with platinum(II)‐NHC complexes to trigger this process. […] Untreated cells (without compound and without BGs) were tested as negative controls.
(§7) The ATP assay was performed by employing the commercially available ATPlite Luminescence Assay System 96‐well (revvity, Massachusetts, USA). In brief, A2780wt and A2780cis cells, respectively, were seeded at a density of 8 × 10^3 cells per well into an opaque‐walled 96‐well plate with solid bottoms. […] After incubation, 50 µL of the provided mammalian cell lysis solution was added and incubated for further 5 min on an orbital shaker at 700 rpm. Then, 50 µL of a provided substrate solution was added and again incubated for 5 min on an orbital shaker at 700 rpm. The plate was allowed to dark adapt for 10 min and then the luminescence was measured. Analysis was performed on the BioTek Synergy H1.

A2780cis cells [6] = experiment: Annexin V/PI staining and FACS analysis, A2780cis; conditions: w/o BGs, 25 µM, 24 h; for late apoptosis/ necrosis: Annexin V positive/PI positive; for early apoptosis: percentage of cells (Annexin V positive/PI negative)
Protocol: Therefore, we aimed to evaluate the apoptosis and necrosis inducing potential of complexes 1–4 via a fluorescent‐activated cell sorting (FACS) analysis with Annexin V/propidium iodide (PI) staining in A2780wt and A2780cis cells. Cells were treated for 24 h with both the free and BG‐loaded forms of each compound at 25 µM. Carboplatin (50 µM) served as a reference.
To evaluate the mode of cell death, a FACS measurement after staining with Annexin V and PI was conducted. First, 0.3 × 10^6 A2780wt or A2780cis cells were seeded into 12‐well plates and were allowed to adhere for 24 h. The compounds were added at 25 µM, either diluted from a freshly prepared DMF stock solution (0.1% DMF) or freshly thawed when loaded in BGs. After 24 h of incubation, the cells were harvested with accutase and washed with PBS. The cells were then resuspended in 200 µL of PBS each and 1 µL of PI solution (Sigma‐Aldrich, Taufkirchen, Germany) and 1 µL of Annexin V‐FITC (MabTag GmbH, Friesoythe, Germany) were added to each sample. These were then incubated for 20 min at rt under light‐protected conditions and afterward transferred onto ice. The percentage of apoptotic cells was determined by analyzing Annexin V positive /PI negative cells using a BD LSRFortessa flow cytometer and BD FACSDiva software (both BD Biosciences, San Jose, CA, USA). The apoptosis analysis included the evaluation of early apoptosis (Annexin V positive/PI negative) and late apoptosis/necrosis (Annexin V positive /PI positive).

A2780cis cells [7] = experiment: ATP luminescence assay, A2780cis; conditions: w/o BGs, 25 µM, 24 h
Text: as §6, §7

| Compound | x‐fold intensity of surface calreticulin compared to untreated cells [1] [x‐fold] | Resistance factor RF = IC50(A2780cis)/IC50(A2780wt) (A2780cis cells [2]) | IC50 (A2780cis cells [2]) [µM] | IC50 (A2780wt cells [3]) [µM] | metabolic activity of A2780wt cells (A2780wt cells [3]; free (non‐loaded) compound, 25 µM, 72 h) [%] | x‐fold intensity of surface calreticulin compared to untreated cells [4] [x‐fold] | ATP concentration (A2780wt cells [5]) [µM] | late apoptosis/ necrosis (A2780cis cells [6]) | early apoptosis (A2780cis cells [6]) | ATP concentration (A2780cis cells [7]) [µM] |
| --- | --- | --- | --- | --- | --- | --- | --- | --- | --- | --- |
| CCN1[C]([Pt]([O]C(C)=O)([O]C(C)=O)[SH](C)(C)=O)N(CC)c2ccccc21 [Compound 1, (SP‐4‐2)‐Diacetato(1,3‐diethylbenzimidazol‐2‐ylidene)(dimethylsulfoxide)platinum(II)] | 1.18 ± 0.37 | 1.2 | 36.5 ± 2.85 | 31.1 ± 2.39 | 85 | 1.09 ± 0.00 | 0.20 ± 0.04 | 15.0 ± 1.65 | 21.3 ± 1.18 | 0.23 ± 0.05 |
| CCN1[C]([Pt]([O]C(=O)C(Cl)Cl)([O]C(=O)C(Cl)Cl)[SH](C)(C)=O)N(CC)c2ccccc21 [Compound 3, (SP‐4‐2)‐Bis(dichloroacetato)(1,3‐diethylbenzimidazol‐2‐ylidene)(dimethylsulfoxide)platinum(II)] | 0.75 ± 0.28 |  | 83.1 ± 4.79 | 58.9 ± 2.05 |  | 1.50 ± 0.17 | 0.15 ± 0.08 | 10.6 ± 0.95 | 11.4 ± 1.82 | 0.28 ± 0.04 |
| (SP‐4‐2)‐Bis(dichloroacetato)bis(1,3‐diethylbenzimidazol‐2‐ylidene)platinum(II) [Compound 4] | 1.13 ± 0.36 | 0.9 | 34.9 ± 1.7 | 37.9 ± 1.58 |  | 1.37 ± 0.24 | 0.32 ± 0.13 | 18.1 ± 1.46 | 22.9 ± 1.67 | 0.10 ± 0.03 |
| (SP‐4‐2)‐Diacetatobis(1,3‐diethylbenzimidazol‐2‐ylidene)platinum(II) [Compound 2] | 1.02 ± 0.05 | 1.0 | 39.3 ± 2.8 | 40.8 ± 2.34 |  | 1.07 ± 0.12 | 0.32 ± 0.03 | 10.0 ± 1.77 | 6.37 ± 1.17 | 0.31 ± 0.04 |
